Test results: patent US7375092B2, “Lunasin peptides” (Regents of the University of California, priority 1997, dated 2008)

B1: large subunit peptide: 77 amino acid (8 kDa) large subunit (alisin) of Gm2S-1, residues 82-158 of SEQ ID NO:2 (protein)
chain: EGKDEDEEEEGHMQKCCTEMSELRSPKCQCKALQKIMENQSEELEEKQKKKMEKELINLATMCRFGPMIQCDLSSDD

Assays:
[1] = tested on: cotyledon and endosperm parynchematous cells; assay: Plant transformation: mitotic disruption in developing seeds; assay type: in vivo; details: deletion mutant and synthetic fusion peptides
Text: Cereal endosperm and legume cotyledon make up at least 85% of the seed weight and that seed size is genetically correlated to crop yield by at least 80%. […] To accomplish this, the 5′ regulatory regions of soybean conglycinin gene (a 170 bp DNA sequence element that is 200 nucleotides upstream of the transcription start site conferring cotyledon-specific expression (Chen et al., 1988, EMBO J 7:297) and rice glutelin gene (a 121 bp DNA sequence element that is 437/317 nucleotide upstream of the transcription start site conferring endosperm-specific expression (Yoshihara and Takaiwa, 1996, Plant Cell Physiol 37:107) are inserted into the −90 position of the CaMV 35S promoter which are then fused to the DNA fragments encoding the in-frame translation of lunasin and lunasin-del peptides. The DNA constructs are ligated to the binary vector, pKYLX71 (Lloyd et al., 1992, Science 258:1773) for Agrobacterium transformation and to pGEM-3Zf(+) vector (Promega) for biolistic transformation (Cho et al., 1995, Plant Mol Biol Rept 13:255). Agrobacterium-mediated transformation using the cotyledon-specific DNA constructs is utilized for most dicots, i.e. legumes (soybean, peas, peanuts and kidney beans), Arabidopsis thaliana and tobacco. For monocots like the cereal grain crops, wheat, rice, barley, rye and corn, the biolistic method of transformation is utilized using the endosperm-specific DNA constructs. The expression of the lunasin peptide in the developing seeds of all these plant species are monitored by immunolocalization using antibodies derived specifically to the carboxyl end epitope of the lunasin peptide.

mammalian cells = assay: Mitotic disruption by peptide panel in mammalian studies; assay type: cell-based; details: deletion mutant and synthetic fusion peptides
Text: Similar mitotic disruption is observed using a large panel of lunasin and alisin deletion mutant peptides (lunasin-del-n and alisin-del-n) and lunasin/alisin-like synthetic peptides (Gm2S-1-syn-n). Exemplary active lunasin-del peptides in these mammalian studies include (again using N→C nomenclature convention): • lunasin-del-1: MRG—residues 57-64 of SEQ ID NO:2 fusion protein • lunasin-del-2: α-tubulin—residues 54-64 of SEQ ID NO:2 fusion protein • lunasin-del-3: β-tubulin—residues 48-63 of SEQ ID NO:2 fusion protein • lunasin-del-4: MAP2 —residues 26-64 of SEQ ID NO:2 fusion protein • lunasin-del-5: Mapmodulin—residues 57-64 of SEQ ID NO:2 fusion protein • lunasin-del-6: GFP—residues 54-64 of SEQ ID NO:2 fusion protein • lunasin-del-7: MAP4—residues 44-63 of SEQ ID NO:2 fusion protein • lunasin-del-8: FLAGG—residues 30-64 of SEQ ID NO:2 fusion protein • lunasin-del-9: CYCLIN A—residues 57-64 of SEQ ID NO:2 fusion protein • lunasin-del-10: CYCLIN B1—residues 54-64 of SEQ ID NO:2 fusion protein • lunasin-del-11: CYCLIN B2—residues 40-63 of SEQ ID NO:2 fusion protein • lunasin-del-12: CYCLIN B3—residues 34-64 of SEQ ID NO:2 fusion protein • lunasin-del-13: SH2—octa-aspartate fusion protein • lunasin-del-14: SH3—octa-aspartate fusion protein • lunasin-del-15: SEQ ID NO:2, residues 48-55—MRG-octa-aspartate fusion protein • lunasin-del-16: SEQ ID NO:2, residues 48-55—SEQ ID NO:2, residues 48-55—octa-aspartate fusion protein • lunasin-del-17: MRG-tetrta-aspartate-tetra glutamate fusion protein • lunasin-del-18: SEQ ID NO:2, residues 48-55-octa-glutamate fusion protein • lunasin-del-19: SEQ ID NO:2, residues 1-21-MRG-deca-glutamate fusion protein • lunasin-del-20: SEQ ID NO:2, residues 48-55—SEQ ID NO:2, residues 48-55—tetra-aspartate-tetra glutamate fusion protein
Alternatively, the peptides are introduced indirectly by expression within the targeted cell. Such expression may be effected by transciently or by upregulation of a stably introduced peptide-encoding gene.

DH5 E. coli cells = assay: Expression of Gm2S-1 peptides in bacteria: disruption of bacterial cell division (filamentation); assay type: cell-based; details: basal expression from pFLAG-1 in DH5 E. coli cells
Text: We sought to produce purified Gm2S-1-derived peptides, including lunasin and alisin peptides, for allergenicity tests using bacterial expression vectors. Initially, PCR amplified fragments that encode lunasin and a lunasin deletion (lunasin-del) mutant (with the 9 aspartic acid deleted from the carboxyl end) were first cloned into pGEM-T (Promega) PCR cloning vector, then cut with EcoR1 and HindIII to release lunasin and lunasin-del gene fragment which were then subcloned into pFLAG-1 bacterial expression vector (Kodak/IBI). Lunasin and lunasin-del pFLAG constructs were used to transform competent DH5 E. coli cells using standard heat shock protocol.
Similar mitotic disruption is observed using a large panel of lunasin and alisin deletion mutant peptides (lunasin-del-n and alisin-del-n) and lunasin/alisin-like synthetic peptides (Gm2S-1-syn-n). […]

Molecule | mitotic disruption, active peptides in plant transformation studies [1] | mitotic disruption, active peptides in mammalian studies (mammalian cells) | formation of elongated and non-septated bacterial filaments (DH5 E. coli cells)
lunasin-del-15: SEQ ID NO:2, residues 48-55—MRG-octa-aspartate fusion protein (MEKIQGRG; C-terminal MRG and octa-aspartate) | active | active | –
lunasin-del-18: SEQ ID NO:2, residues 48-55—octa-glutamate fusion protein (MEKIQGRG; C-terminal octa-glutamate) | active | active | –
lunasin-del-19: SEQ ID NO:2, residues 1-21—MRG-deca-glutamate fusion protein (MTKFTILLISLLFCIAHTCSA; C-terminal MRG and deca-glutamate) | active | active | –
B1 | – | – | not detected
